Results on 16 compounds are retold here after US20150175530A1, “ANTIBACTERIAL AGENTS” (priority 2012, published 2015).

≈ marks a conversion by molar mass, not a printed value. Where two headings read alike, the source gives them in different places.

The subject of data set [1] is bacterial isolates (clinical isolates and ATCC quality control strains). Description: Minimum Inhibitory Concentrations (MICs) by broth microdilution (CLSI susceptibility testing). The format is cell-based. The protocol: Bacterial isolates were cultivated from −70° C. frozen stocks by overnight passages at 35° C. in ambient air on Mueller-Hinton agar (Beckton Dickinson, Franklin Lakes, N.J.). Clinical isolates tested were obtained from various geographically diverse hospitals in the US and abroad (Focus Diagnostics, Herndon, Va. and JMI, North Liberty, Iowa). Quality control strains were from the American Type Culture Collection (ATCC; Rockville, Md.).
Minimum Inhibitory Concentrations (MICs) were determined by the broth microdilution method in accordance with the Clinical and Laboratory Standards Institute (CLSI) guidelines. In brief, organism suspensions were adjusted to a 0.5 McFarland standard to yield a final inoculum between 3×10^5 and 7×10^5 colony-forming units (CFU)/mL. Drug dilutions and inocula were made in sterile, cation adjusted Mueller-Hinton Broth (Beckton Dickinson). An inoculum volume of 100 μL was added to wells containing 100 μL of broth with 2-fold serial dilutions of drug. All inoculated microdilution trays were incubated in ambient air at 35° C. for 18-24 h. Following incubation, the lowest concentration of the drug that prevented visible growth (OD600 nm<0.05) was recorded as the MIC. Performance of the assay was monitored by the use of laboratory quality-control strains and levofloxacin, a compound with a defined MIC spectrum, in accordance with CLSI guidelines.
For orientation: Broth dilution looks for growth in wells or tubes with falling amounts of substance.

In data set [2] the test system is 3 P. aeruginosa strains (APAE001, APAE002, APAE006). Description: Protein binding: fold change in MIC in the presence of 2% HSA and 0.05% AGP, Geomean of 3 strains. The format is cell-based, Pseudomonas aeruginosa. To be noted: MIC in the presence of 2% HSA and 0.05% AGP divided by MIC in the absence; Geomean of 3 P. aeruginosa strains (APAE001, APAE002, APAE006). The protocol:
The effect of human serum albumin (HSA) and α-1-acid glycoprotein (AGP) from human plasma, which are known to nonspecifically bind to certain antibiotics and thereby reduce their activity (Banéres-Roquet et al. 2009 “Use of a Surface Plasmon Resonance Method to Investigate Antibiotic and Plasma Protein Interactions” Antimicrob. Agents and Chemother. 53(4):1528-1531), was assessed against 3 P. aeruginosa strains (APAE001, APAE002, APAE006). APAE001 is Pseudomonas aeruginosa ATCC27853; APAE002 is a wildtype lab strain of Pseudomonas aeruginosa known as PAM1020 or PA01. APAE006 is a strain of […]/PA01 with efflux deletions: delta mexAB-oprM::CM delta CD-oprJ::Gm delta mexEF-oprN::omega Hg. Lomovskaya, 0 et al. 1999. Use of a Genetic Approach To Evaluate the Consequences of Inhibition of Efflux Pumps in P aeruginosa. Antimicrob. Agents Chemother. 43: 1340-1346.
The standard procedure described in Susceptibility Testing was utilized with one adjustment, specifically 2% HSA and 0.05% AGP were added to the cation adjusted Mueller-Hinton Broth. The MIC for each strain of interest was then assessed in the presence and absence of HSA/AGP. Following MIC determination, the fold change in MIC was determined for each individual strain by dividing the MIC in the presence of HSA/AGP by the MIC in the absence of HSA/AGP. The protein binding Geomean was then calculated using these 3 values.

The mark [3] stands for this setting: APAE1096 is a clinical isolate, broth microdilution, read-out: Minimum Inhibitory Concentrations (MICs) APAE1096.
The mark [4] stands for this setting: Pseudomonas aeruginosa, APAE002 is a wildtype lab strain of Pseudomonas aeruginosa known as PAM1020 or PA01, broth microdilution, read-out: Minimum Inhibitory Concentrations (MICs) APAE002.
Where [5] appears, read: Pseudomonas aeruginosa, ATCC27853, APAE001 is Pseudomonas aeruginosa ATCC27853, broth microdilution, read-out: Minimum Inhibitory Concentrations (MICs) APAE001.
Where [6] appears, read: Pseudomonas aeruginosa, ATCC27853, read-out: Minimum Inhibitory Concentrations (MICs) APAE001.
Setting [7] is: Pseudomonas aeruginosa, read-out: Minimum Inhibitory Concentrations (MICs) APAE002.
Setting [8] is: read-out: Minimum Inhibitory Concentrations (MICs) APAE1096.

In the case of `CC(C)(N)[C@H](NC(=O)c1ccc(C#CC#CCC(O)CO)cc1)C(=O)NO` (stereo partly drawn) [Compound 21, N—((S)-3-amino-1-(hydroxyamino)-3-methyl-1-oxobutan-2-yl)-4-(6,7-dihydroxyhepta-1,3-diynyl)benzamide], the MIC in data set [1] (setting [3]), in data set [1] (setting [4]) and in data set [1] (setting [5]) was 1 to 8 µg/mL (≈ 2.68 to 21.4 µM) each time. Also, the “Protein Binding PB (Geomean of fold change in MIC)” value in data set [2] is reported as 1.9.
For `CNC(C)(C)[C@H](NC(=O)c1ccc(C#CC#CCC(O)CO)cc1)C(=O)NO` (stereo partly drawn) [Compound 22, 4-(6,7-dihydroxyhepta-1,3-diynyl)-N—((S)-1-(hydroxyamino)-3-methyl-3-(methylamino)-1-oxobutan-2-yl)benzamide], the MIC in data set [1] (setting [3]) is 1 to 8 µg/mL (≈ 2.58 to 20.6 µM); in data set [1] (setting [4]), less than 1 µg/mL; in data set [1] (setting [5]), less than 1 µg/mL. In addition, in data set [2], the “Protein Binding PB (Geomean of fold change in MIC)” value came out at 1.6.
Turning to `CC(C)(N)[C@H](NC(=O)c1ccc(C#CC#C[C@@H]2[C@@H](CO)[C@H]2CO)cc1)C(=O)NO` [Compound 23A, N—((S)-3-amino-1-(hydroxyamino)-3-methyl-1-oxobutan-2-yl)-4-(((1S,2R,3S)-2,3-bis(hydroxymethyl)cyclopropyl)buta-1,3-diynyl)benzamide], the MIC was 8 to 16 µg/mL (≈ 20 to 40.1 µM) in data set [1] (setting [3]), 1 to 8 µg/mL (≈ 2.5 to 20 µM) in data set [1] (setting [4]) and 1 to 8 µg/mL (≈ 2.5 to 20 µM) in data set [1] (setting [5]). Moreover, in data set [2], the “Protein Binding PB (Geomean of fold change in MIC)” value came out at 2.3.
As to `CC(C)(N)[C@H](NC(=O)c1ccc(C#CC#C[C@H]2[C@@H](CO)[C@H]2CO)cc1)C(=O)NO` [Compound 23B, N—((S)-3-amino-1-(hydroxyamino)-3-methyl-1-oxobutan-2-yl)-4-(((1R,2R,3S)-2,3-bis(hydroxymethyl)cyclopropyl)buta-1,3-diynyl)benzamide], the figures for the MIC in data set [1] (setting [3]), in data set [1] (setting [4]) and in data set [1] (setting [5]) were 8 to 16 µg/mL (≈ 20 to 40.1 µM), 1 to 8 µg/mL (≈ 2.5 to 20 µM) and 1 to 8 µg/mL (≈ 2.5 to 20 µM), respectively. The “Protein Binding PB (Geomean of fold change in MIC)” value in data set [2] is 2.0.
`CC(C)(N)[C@H](NC(=O)c1ccc(C#CC#C[C@H]2CC2(CO)CO)cc1)C(=O)NO` [Compound 24, N—((S)-3-amino-1-(hydroxyamino)-3-methyl-1-oxobutan-2-yl)-4-(((R)-2,2-bis(hydroxymethyl)cyclopropyl)buta-1,3-diynyl)benzamide]: the MIC in data set [1] (setting [3]), in data set [1] (setting [4]) and in data set [1] (setting [5]) was 1 to 8 µg/mL (≈ 2.5 to 20 µM) throughout. The “Protein Binding PB (Geomean of fold change in MIC)” value in data set [2] is reported as 2.5.
For the compound `CC(C)(N)[C@H](NC(=O)c1ccc(C#CC#CC(O)C2CC2CO)cc1)C(=O)NO` (stereo partly drawn) [Compound 26, N—((S)-3-amino-1-(hydroxyamino)-3-methyl-1-oxobutan-2-yl)-4-(5-hydroxy-5-(2-(hydroxymethyl)cyclopropyl)penta-1,3-diynyl)benzamide], the MIC in data set [1] (setting [3]) was 1 to 8 µg/mL (≈ 2.5 to 20 µM); in data set [1] (setting [4]), less than 1 µg/mL; in data set [1] (setting [5]) it was less than 1 µg/mL. For the same compound, in data set [2], the “Protein Binding PB (Geomean of fold change in MIC)” value is 6.4.
`CC(C)(N)[C@H](NC(=O)c1ccc(C#CC#C[C@]2(O)C[C@@H](CO)C2)cc1)C(=O)NO` [Compound 27, N—((S)-3-amino-1-(hydroxyamino)-3-methyl-1-oxobutan-2-yl)-4-(((1S,3R)-1-hydroxy-3-(hydroxymethyl)cyclobutyl)buta-1,3-diynyl)benzamide]: the MIC in data set [1] (setting [3]) is 1 to 8 µg/mL (≈ 2.5 to 20 µM); in data set [1] (setting [4]), less than 1 µg/mL; in data set [1] (setting [5]), less than 1 µg/mL. In addition, the “Protein Binding PB (Geomean of fold change in MIC)” value in data set [2] was found to be 1.8.
Turning to `CC(C)(N)[C@H](NC(=O)c1ccc(C#CC#CC[C@]2(O)C[C@@H](CO)C2)cc1)C(=O)NO` [Compound 28, N—((S)-3-amino-1-(hydroxyamino)-3-methyl-1-oxobutan-2-yl)-4-(5-((1S,3S)-1-hydroxy-3-(hydroxymethyl)cyclobutyl)penta-1,3-diyn-1-yl)benzamide], the MIC in data set [1] (setting [3]) was greater than 16 µg/mL; in data set [1] (setting [4]), 1 to 8 µg/mL (≈ 2.42 to 19.3 µM); in data set [1] (setting [5]), 1 to 8 µg/mL (≈ 2.42 to 19.3 µM). The “Protein Binding PB (Geomean of fold change in MIC)” value in data set [2] was 1.3.
For the compound `CC(C)(N)[C@H](NC(=O)c1ccc(C#CC#C[C@H]2C[C@@](O)(CO)C2)cc1)C(=O)NO` [Compound 29, N—((S)-3-amino-1-(hydroxyamino)-3-methyl-1-oxobutan-2-yl)-4-(((1R,3S)-3-hydroxy-3-(hydroxymethyl)cyclobutyl)buta-1,3-diynyl)benzamide], the MIC is 1 to 8 µg/mL (≈ 2.5 to 20 µM) in data set [1] (setting [3]), less than 1 µg/mL in data set [1] (setting [4]) and less than 1 µg/mL in data set [1] (setting [5]). For the same compound, the “Protein Binding PB (Geomean of fold change in MIC)” value in data set [2] was determined as 2.9.
Turning to `CC(C)(N)[C@H](NC(=O)c1ccc(C#CC#C[C@@H]2C[C@@H](O)[C@@H](O)C2)cc1)C(=O)NO` [Compound 32, N—((S)-3-amino-1-(hydroxyamino)-3-methyl-1-oxobutan-2-yl)-4-(((1S,3R,4S)-3,4-dihydroxycyclopentyl)buta-1,3-diynyl)benzamide], the MIC in data set [1] (setting [3]) is 1 to 8 µg/mL (≈ 2.5 to 20 µM); in data set [1] (setting [4]), less than 1 µg/mL; in data set [1] (setting [5]), less than 1 µg/mL. Also, the “Protein Binding PB (Geomean of fold change in MIC)” value in data set [2] is 5.5.
Take `CC(C)(N)[C@H](NC(=O)c1ccc(C#CC#C[C@H]2CC[C@@](O)(CO)CC2)cc1)C(=O)NO` [Compound 33A, N—((S)-3-amino-1-(hydroxyamino)-3-methyl-1-oxobutan-2-yl)-4-(((1S,4R)-4-hydroxy-4-(hydroxymethyl)cyclohexyl)buta-1,3-diynyl)benzamide]: the MIC is 8 to 16 µg/mL (≈ 18.7 to 37.4 µM) in data set [1] (setting [3]), less than 1 µg/mL in data set [1] (setting [4]) and 1 to 8 µg/mL (≈ 2.34 to 18.7 µM) in data set [1] (setting [5]). Also, in data set [2], the “Protein Binding PB (Geomean of fold change in MIC)” value is given as 2.6.
The corresponding values for `CC(C)(N)[C@H](NC(=O)c1ccc(C#CC#C[C@H]2CC[C@](O)(CO)CC2)cc1)C(=O)NO` [Compound 33B, N—((S)-3-amino-1-(hydroxyamino)-3-methyl-1-oxobutan-2-yl)-4-(((1R,4S)-4-hydroxy-4-(hydroxymethyl)cyclohexyl)buta-1,3-diynyl)benzamide] are 1 to 8 µg/mL (≈ 2.34 to 18.7 µM), 1 to 8 µg/mL (≈ 2.34 to 18.7 µM), less than 1 µg/mL and 5.1.
Consider `CC(C)(O)[C@H](NC(=O)c1ccc(C#CC#CCCO)cc1)C(=O)NO` [Compound 34, (S)—N-(3-hydroxy-1-(hydroxyamino)-3-methyl-1-oxobutan-2-yl)-4-(6-hydroxyhexa-1,3-diynyl)benzamide], for which the MIC was 1 to 8 µg/mL (≈ 2.9 to 23.2 µM) in data set [1] (setting [3]), less than 1 µg/mL in data set [1] (setting [4]) and less than 1 µg/mL in data set [1] (setting [5]). Further, in data set [2], the “Protein Binding PB (Geomean of fold change in MIC)” value worked out at 2.8.
On to `C[C@@H](N)[C@H](NC(=O)c1ccc(C#CC#CCCO)cc1)C(=O)NO` [Compound 35, N-((2S,3R)-3-amino-1-(hydroxyamino)-1-oxobutan-2-yl)-4-(6-hydroxyhexa-1,3-diyn-1-yl)benzamide], for which the values for the MIC in data set [1] (setting [3]), in data set [1] (setting [4]) and in data set [1] (setting [5]) were 1 to 8 µg/mL (≈ 3.04 to 24.3 µM), less than 1 µg/mL and less than 1 µg/mL, respectively. The “Protein Binding PB (Geomean of fold change in MIC)” value in data set [2] worked out at 2.0.
On to `CC(C)(N)[C@H](NC(=O)c1ccc(C#CC#CC[C@H](O)CO)cc1)C(=O)NO` [Compound 36, N—((S)-3-amino-1-(hydroxyamino)-3-methyl-1-oxobutan-2-yl)-4-((S)-6,7-dihydroxyhepta-1,3-diyn-1-yl)benzamide], for which the MIC in data set [1] (setting [6]) is less than 1 µg/mL; in data set [1] (setting [7]), less than 1 µg/mL; in data set [1] (setting [8]), 1 to 8 µg/mL (≈ 2.68 to 21.4 µM). Further, the “Protein Binding PB (Geomean of fold change in MIC)” value in data set [2] stood at 2.3.
Turning to `CC(C)(N)[C@H](NC(=O)c1ccc(C#CC#CC[C@@H](O)CO)cc1)C(=O)NO` [Compound 37, N—((S)-3-amino-1-(hydroxyamino)-3-methyl-1-oxobutan-2-yl)-4-((R)-6,7-dihydroxyhepta-1,3-diyn-1-yl)benzamide], the MIC in data set [1] (setting [6]), in data set [1] (setting [7]) and in data set [1] (setting [8]) was 1 to 8 µg/mL (≈ 2.68 to 21.4 µM) in each case. Further, the “Protein Binding PB (Geomean of fold change in MIC)” value in data set [2] was found to be 1.4.
